From paper PMC9490236, “Accurate de novo design of membrane-traversing macrocycles” (Cell, 2022)
Read-outs that look alike come from different tables or passages of the source. Where a SMILES comes first, the peptide text is derived from it. [ ]: non-standard residue; d: D form. ξ: configuration not given here. NMeF = CN[C@@H](Cc1ccccc1)C(=O)O; dIle(3ξ) = CCC(C)[C@@H](N)C(=O)O; dNMeF = CN[C@H](Cc1ccccc1)C(=O)O; NMeL = CN[C@@H](CC(C)C)C(=O)O; dNMeL = CN[C@H](CC(C)C)C(=O)O; dNMeV = CN[C@@H](C(=O)O)C(C)C; NMeA = CN[C@@H](C)C(=O)O; dNMeA = CN[C@H](C)C(=O)O; Aib = CC(C)(N)C(=O)O

Legend:
[1] = Parallel artificial membrane permeability assay (PAMPA); conditions: for PAMPA_R1 / PAMPA_R3: PAMPA Papp; for PAMPA_R1: replicate 1; for PAMPA_R3: replicate 3; for Papp: PAMPA
[2] = Caco-2 permeability assay (apical to basolateral); assay type: in vitro ADME, human; conditions: for Papp A→B: Caco-2, Caco_Papp_Average
Procedure, shortened: (§1)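 Apical-to-basolateral flux was determined by LC-MS of both compartments after 90 min at 37°C on an orbital shaker, with 50 μM peptide on the apical side and HBSS below. Monolayers were grown for 6 days in an accelerated Caco-2 Transwell format and verified by TEER before and after the run.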

[3] = tested on: Caco-2 cells; assay: Caco-2 permeability assay (apical to basolateral); assay type: in vitro ADME, human; conditions: Caco-2
Procedure, shortened: as §1

[4] = in vitro; conditions: PAMPA, PAMPA_Papp_Avg
[5] = PAMPA
[6] = BQL: No significant peak detected for the peptide in the acceptor wells
[7] = average of 3 replicates, BQL: No significant peak detected for the peptide in the acceptor wells
[8] = BQL = no significant peak detected for the peptide in the acceptor wells

CC[C@@H](C)[C@H]1NC(=O)[C@H]2CCCN2C(=O)[C@H]([C@@H](C)CC)NC(=O)[C@@H]2CCCN2C(=O)[C@H]2CCCN2C(=O)[C@@H](CC(C)C)NC(=O)[C@H](CC(C)C)NC(=O)[C@H](C(C)C)NC(=O)[C@H](CC(C)C)NC(=O)[C@H](C)NC(=O)[C@H](C)NC(=O)[C@@H]2CCCN2C1=O [Design D12.1, PRO ILE DPRO DILE PRO ALA ALA LEU VAL LEU DLEU DPRO] (cyclo(I[dP][dI]PAALVL[dL][dP]P))
PAMPA_R1 [1, 6]: BQL
PAMPA_R3 [1, 6]: BQL
PAMPA_Papp_Avg [1, 7]: BQL

CC[C@@H](C)[C@H]1NC(=O)[C@@H](CC(C)C)N(C)C(=O)[C@@H]2CCCN2C(=O)[C@H](C(C)C)NC(=O)[C@@H](C)N(C)C(=O)[C@@H]2CCCN2C(=O)[C@@H](CC(C)C)NC(=O)[C@@H](C(C)C)N(C)C(=O)[C@@H]2CCCN2C(=O)[C@H](C)NC(=O)[C@H](C(C)C)NC(=O)[C@@H]2CCCN2C1=O [Design D12.5, VAL PRO *DLEU DILE PRO VAL ALA PRO *DVAL DLEU PRO *DALA] (cyclo(AP[dNMeV][dL]P[dNMeA]VP[dNMeL][dI]PV))
Papp [1]: 0.1 ×10⁻⁶ cm/s
PAMPA_R1 [1, 6]: 1.24E-07
PAMPA_R3 [1, 6]: 1.52E-07

CC[C@@H](C)[C@H]1NC(=O)[C@@H](C)N(C)C(=O)[C@H](CC(C)C)NC(=O)[C@@H](CC(C)C)NC(=O)[C@H]2CCCN2C(=O)[C@H](CC(C)C)N(C)C(=O)[C@@H](C(C)C)NC(=O)[C@@H](CC(C)C)N(C)C(=O)[C@H](C(C)C)NC(=O)[C@@H](C(C)C)NC(=O)[C@@H]2CCCN2C(=O)[C@H]2CCCN2C1=O [Design D12.10, *LEU DPRO DLEU LEU *DALA DILE DPRO PRO DVAL VAL *DLEU DVAL] (cyclo([dV]V[dNMeL][dV][NMeL][dP][dL]L[dNMeA][dI][dP]P))
PAMPA_R1 [1, 6]: BQL
PAMPA_R3 [1, 6]: BQL
PAMPA_Papp_Avg [1, 7]: BQL

CC[C@@H](C)[C@H]1NC(=O)[C@@H](CC(C)C)NC(=O)C(C)(C)NC(=O)[C@@H]2CCCN2C(=O)[C@@H]([C@H](C)CC)NC(=O)[C@@H](CC(C)C)NC(=O)C(C)(C)NC(=O)[C@@H]2CCCN2C1=O [Design D8.2, PRO AIB DLEU DILE PRO AIB DLEU DILE] (cyclo([Aib][dL][dI]P[Aib][dL][dI]P))
Papp A→B [2]: 11.7 ×10⁻⁶ cm/s
Caco_R1 [3]: 8.98
Caco_R3 [3]: 13.19
Papp [4]: 7.49 ×10⁻⁶ cm/s
PAMPA_R1 [5]: 7.36E-06
PAMPA_R3 [5]: 1.04E-05

CC(C)C[C@@H]1NC(=O)[C@H](CC(C)C)N(C)C(=O)[C@H]2CCCN2C(=O)[C@@H](C)NC(=O)[C@@H](C)N(C)C(=O)[C@@H](C(C)C)NC(=O)[C@@H](CC(C)C)N(C)C(=O)[C@@H]2CCCN2C1=O [Design D8.30, DALA DPRO *LEU LEU PRO *DLEU DVAL *DALA] (cyclo(LP[dNMeL][dV][dNMeA][dA][dP][NMeL]))
Papp A→B [2]: 3.97 ×10⁻⁶ cm/s
Caco_R1 [3]: 4.11
Caco_R3 [3]: 2.89
Papp [4]: 4.32 ×10⁻⁶ cm/s
PAMPA_R1 [5]: 4.61E-06
PAMPA_R3 [5]: 4.25E-06

CC(C)C[C@@H]1C(=O)N[C@H](CC(C)C)C(=O)N2CCC[C@@H]2C(=O)N2CCC[C@@H]2C(=O)N(C)[C@@H](C)C(=O)N[C@H](Cc2ccccc2)C(=O)N[C@@H](C)C(=O)N(C)[C@@H](CC(C)C)C(=O)N1C [Design D8.10, DPRO DPRO *ALA DPHE ALA *LEU *DLEU DLEU] (cyclo(A[NMeL][dNMeL][dL][dP][dP][NMeA][dF]))
Papp A→B [2]: 3.91 ×10⁻⁶ cm/s
Caco_R1 [3]: 3.8
Caco_R3 [3]: 3.36
Papp [4]: 1.23 ×10⁻⁶ cm/s
PAMPA_R1 [5]: 8.77E-07
PAMPA_R3 [5]: 1.78E-06

CC[C@@H](C)[C@H]1NC(=O)[C@@H]2CCCN2C(=O)[C@@H](Cc2ccccc2)N(C)C(=O)[C@@H](CC(C)C)N(C)C(=O)[C@@H](C(C)C)NC(=O)[C@@H](CC(C)C)N(C)C(=O)[C@H](Cc2ccccc2)N(C)C(=O)[C@H](C(C)C)NC(=O)[C@H]2CCCN2C1=O [Design D9.7, VAL *PHE *DLEU DVAL *DLEU *DPHE PRO DILE DPRO] (cyclo([NMeF][dNMeL][dV][dNMeL][dNMeF]P[dI][dP]V))
PAMPA_R1 [1, 8]: BQL
PAMPA_R3 [1, 8]: BQL
PAMPA_Papp_Avg ([1]; average of replicates R1-R3, BQL = no significant peak detected for the peptide in the acceptor wells): BQL

CC[C@@H](C)[C@H]1NC(=O)[C@H](C)N(C)C(=O)[C@H]([C@@H](C)CC)NC(=O)[C@H]2CCCN2C(=O)[C@H](CC(C)C)N(C)C(=O)[C@@H](C(C)C)NC(=O)[C@H](C)N(C)C(=O)[C@H]([C@@H](C)CC)NC(=O)[C@@H](CC(C)C)NC(=O)[C@@H]2CCCN2C(=O)[C@H]2CCCN2C1=O [Design D11.10, DPRO ILE *ALA DILE DPRO PRO DLEU ILE *ALA DVAL *LEU] (cyclo([dL]I[NMeA][dV][NMeL][dP]I[NMeA][dI][dP]P))
Papp A→B [2]: 4.54 ×10⁻⁶ cm/s
Caco_R1 [3]: 4.35
Caco_R3 [3]: 4.8
Papp [4]: 2.45 ×10⁻⁶ cm/s
PAMPA_R1 [5]: 2.19E-06
PAMPA_R3 [5]: 3.23E-06

CC[C@H](C)[C@@H]1NC(=O)[C@@H](CC(C)C)NC(=O)[C@@H](C)N(C)C(=O)[C@H](Cc2ccccc2)NC(=O)[C@@H](CC(C)C)NC(=O)[C@@H](C)N(C)C(=O)[C@@H]2CCCN2C(=O)[C@H](C(C)C)NC(=O)[C@H]2CCCN2C(=O)[C@@H]2CCCN2C1=O [Design D10.31, PHE *DALA DLEU ILE PRO DPRO VAL PRO *DALA DLEU] (cyclo(F[dNMeA][dL]IP[dP]VP[dNMeA][dL]))
Papp A→B [2]: 2.79 ×10⁻⁶ cm/s
Caco_R1 [3]: 1.93
Caco_R3 [3]: 3.02
Papp [4]: 1.9 ×10⁻⁶ cm/s
PAMPA_R1 [5]: 1.81E-06
PAMPA_R3 [5]: 2.20E-06

CCC(C)[C@H]1NC(=O)[C@H](CC(C)C)NC(=O)[C@@H](C)N(C)C(=O)[C@@H]2CCCN2C(=O)[C@H](C)NC(=O)[C@@H](CC(C)C)NC(=O)[C@H]2CCCN2C(=O)[C@H](C(C)C)NC(=O)[C@@H](CC(C)C)N(C)C1=O (stereo partly drawn) [Design D9.30, DPRO DLEU ALA PRO *DALA LEU DILE *DLEU VAL] (cyclo(AP[dNMeA]L[dIle(3ξ)][dNMeL]V[dP][dL]))
Papp A→B [2]: 2.32 ×10⁻⁶ cm/s
Caco_R1 [3]: 1.9
Caco_R3 [3]: 2.72
Papp [4]: 1.6 ×10⁻⁶ cm/s
PAMPA_R1 [5]: 1.58E-06
PAMPA_R3 [5]: 1.58E-06

CC[C@@H](C)[C@H]1NC(=O)[C@@H](Cc2ccccc2)NC(=O)[C@@H](CC(C)C)NC(=O)[C@@H]2CCCN2C(=O)[C@H]2CCCN2C(=O)[C@H](CC(C)C)NC(=O)[C@H](CC(C)C)NC(=O)[C@@H](CC(C)C)N(C)C(=O)[C@H](C)N(C)C(=O)[C@H]2CCCN2C1=O [Design D10.34, DPHE DILE DPRO *ALA *DLEU LEU LEU DPRO PRO DLEU] (cyclo([dL][dF][dI][dP][NMeA][dNMeL]LL[dP]P))
Papp A→B [2]: 15 ×10⁻⁶ cm/s
Papp at 90 min, 50 µM ([2]; human, Caco-2): > 10 ×10⁻⁶ cm/s
Caco_R1 [3]: 14.68
Caco_R3 [3]: 14.14
Papp [4]: 4.51 ×10⁻⁶ cm/s
PAMPA_R1 [5]: 4.77E-06
PAMPA_R3 [5]: 4.57E-06

CC[C@@H](C)[C@H]1NC(=O)[C@@H](CC(C)C)NC(=O)[C@H](C(C)C)NC(=O)[C@@H](CC(C)C)N(C)C(=O)[C@@H]2CCCN2C(=O)[C@H](C)NC(=O)[C@H](CC(C)C)N(C)C(=O)[C@H]2CCCN2C(=O)[C@H](C)N(C)C(=O)[C@@H](CC(C)C)N(C)C(=O)[C@@H]2CCCN2C1=O [Design D11.5, ALA PRO *DLEU VAL DLEU DILE PRO *DLEU *ALA DPRO *LEU] (cyclo(AP[dNMeL]V[dL][dI]P[dNMeL][NMeA][dP][NMeL]))
Papp A→B [2]: 3.84 ×10⁻⁶ cm/s
Caco_R1 [3]: 2.93
Caco_R3 [3]: 3.89
Papp [4]: 2.81 ×10⁻⁶ cm/s
PAMPA_R1 [5]: 2.56E-06
PAMPA_R3 [5]: 3.12E-06

CC[C@H](C)[C@@H]1NC(=O)[C@@H](C(C)C)NC(=O)[C@@H]2CCCN2C(=O)[C@@H](CC(C)C)N(C)C(=O)[C@@H](C(C)C)NC(=O)[C@H](CC(C)C)N(C)C(=O)[C@H]2CCCN2C(=O)[C@@H](C)NC(=O)[C@H](Cc2ccccc2)N(C)C(=O)[C@H]2CCCN2C1=O (single isomer, unassigned) [Design D10.3.p1, ILE DPRO *PHE DALA DPRO *LEU DVAL *DLEU PRO DVAL]
Papp A→B [2]: 3.15 ×10⁻⁶ cm/s
Caco_R1 [3]: 1.3
Caco_R3 [3]: 6.15
Papp [4]: 2.52 ×10⁻⁶ cm/s
PAMPA_R1 [5]: 3.04E-06
PAMPA_R3 [5]: 1.85E-06

CC(C)C[C@@H]1NC(=O)[C@H](CC(C)C)N(C)C(=O)[C@H]2CCCN2C(=O)[C@H]2CCCN2C(=O)[C@H](CC(C)C)NC(=O)[C@@H](CC(C)C)N(C)C(=O)[C@@H](C)NC(=O)[C@@H](CC(C)C)N(C)C(=O)[C@H]2CCCN2C(=O)[C@@H](CC(C)C)NC(=O)[C@@H](C)N(C)C1=O [Design D11.15, LEU DPRO DPRO *LEU LEU *DALA DLEU DPRO *DLEU DALA *DLEU] (cyclo(L[dNMeA][dL][dP][dNMeL][dA][dNMeL]L[dP][dP][NMeL]))
Papp [1]: 1.29 ×10⁻⁶ cm/s
PAMPA_R1 [1, 6]: 9.49E-07
PAMPA_R3 [1, 6]: 1.56E-06

CC[C@H](C)[C@@H]1NC(=O)[C@H]2CCCN2C(=O)[C@@H]2CCCN2C(=O)[C@@H](C(C)C)NC(=O)[C@@H](C)N(C)C(=O)[C@H](C)N(C)C(=O)[C@@H](CC(C)C)N(C)C(=O)[C@@H](C(C)C)NC1=O [Design D8.26, DVAL *DLEU *ALA *DALA DVAL PRO DPRO ILE] (cyclo(I[dV][dNMeL][NMeA][dNMeA][dV]P[dP]))
Papp A→B [2]: 0.647 ×10⁻⁶ cm/s
Caco_R1 [3]: 0.79
Caco_R3 [3]: 0.94
Papp [4]: 0.255 ×10⁻⁶ cm/s
PAMPA_R1 [5]: 1.58E-07
PAMPA_R3 [5]: 2.69E-07
